Assay [1] deals with kinase protein levels in MCF-7 cells. In words: TMT-labeled quantitative proteomics. The format is cell-based, human. Conditions: for log2FC (compound/DMSO): MCF7, 1 µM, set1.1. As to the method:
(§1) 50 µl of SDS Lysis Buffer (2% SDS, 50 mM TRIS pH 8.5, 10 mM TCEP, 40 mM CAA) was added to each sample. Cells were transferred into low binding reaction tubes (Eppendorf:
(§2) Methanol/Chloroform Precipitation. 200 µl of methanol and 50 µl of chloroform were added to each sample reaction tube and mixed via vortex. 150 µl of milliQ-H2O were added and samples were vortexed further. Samples were centrifuged for 5 minutes at 15000 g and the aqueous layer above the interphase was removed. 150 µl of methanol was added, samples were vortexed and centrifuged for 10 minutes at 15000 g to precipitate the pellet. The aforementioned wash procedure was repeated twice before transferring the pellet to a new low bind reaction tube in which it was allowed to dry for 5 minutes.
(§3) Dissolving the Protein Pellet and Protein Quantification. 50 µl of digestion buffer (8 M Urea, 50 mM TRIS pH 8) was added to each sample before vortexing and shaking at 750 rpm at room temperature for 10 minutes to solubilize the pellet. Protein quantification via PierceTM […]
(§4) Protein Digestion. Samples were diluted 1:2 with 50 mM TRIS pH 8.5 to reach a final concentration of 4 M Urea. Lys-C (Promega: VA1170) was added at a 1:100 enzyme/substrate ratio. Samples were agitated at 550 rpm and 37 °C for 3 h. Samples were further diluted with 50 mM TRIS pH 8.5 to a final concentration of 1 M Urea and Trypsin (Promega: V5280) was added at a 1:100 enzyme/substrate ratio. Samples were agitated overnight at 550 rpm and 37 °C. The digestion was stopped the following day via addition of TFA to a final concentration […]
(§5) Solid Phase Extraction via C18 Cartridges. Sep-Pak C18 Cartridges (Waters: WAT054955) were used for solid phase extraction of digested peptides. For preconditioning of C18 cartridges, 1 mL of methanol was added to each column followed by 1 mL of solution B (0.1% formic acid, 80% acetonitrile) and 1 mL of solution A (0.1% formic acid, ddH2O) twice. Samples […]
(§6) were loaded to their respective columns and once samples had passed, columns were washed twice with solution A to remove unwanted components from the loading step. Elution of samples was carried out via introduction of 40% and 60% acetonitrile steps. Samples were dried and snap frozen in liquid nitrogen.
(§7) TMT-Labeling. Desalted peptides were dried and resuspended in TMT-labeling buffer (200 mM EPPS pH 8.2, 20% acetonitrile). 10 μg of peptides per condition were subjected to TMT labeling with 1:2.5 peptide TMT ratio (w/w) for 1 h at room temperature. The labeling reaction was quenched by addition of hydroxylamine to a final concentration of 0.5% and incubation at room temperature for 15 minutes. Successful TMT labeling was verified by mixing equimolar ratios of peptides and subjecting the mix to single shot LC-MS/MS analysis. For high pH reversed phase fractionation on a Dionex analytical HPLC, 50 µg of pooled and purified TMT labelled samples were resuspended in 10 mM ammonium-bicarbonate (ABC), 5% acetonitrile, and separated on a 250 mm long C18 column (Aeris Peptide XB-C18, 4.6 mm ID, 2.6 µm particle size; Phenomenex) using a multistep gradient from 100% solvent A (5% acetonitrile, 10 mM ABC in water) to 60% solvent B (90% acetonitrile, 10 mM ABC in water) over 70 minutes. Eluting peptides were collected every 45 seconds into a total of 96 fractions, which were cross-concatenated into 24 fractions and dried in a vacuum concentrator and resuspended in 3% acetonitrile with 0.1% TFA for LC-MS analysis.
(§8) Mass spectrometry data acquisition. Tryptic peptides were analyzed on an Orbitrap Lumos coupled to an easy nLC 1200 (ThermoFisher Scientific) using a 35 cm long, 75 µm ID fused-silica column packed in house with 1.9 µm C18 particles (Reprosil pur, Dr. Maisch), and kept at 50 °C using an integrated column oven (Sonation). HPLC solvents consisted of 0.1% formic acid in water (buffer A) and 0.1% formic acid and 80% acetonitrile in water (buffer B). Assuming

The target of assay [2] is T1, kinase protein levels in MCF-7 cells (Homo sapiens, UniProt A0A0B4J2F0).
T1 construct: endogenous in cells; host or cells: MCF-7
T1 sequence (A0A0B4J2F0 1-54): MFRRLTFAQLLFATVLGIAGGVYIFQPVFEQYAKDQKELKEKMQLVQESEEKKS
In words: TMT-labeled quantitative proteomics. The format is cell-based. To be noted: protein PIGBOS1; MCF7; 1 µM; set1.1. As to the method:
as §1, §2, §3, §4, §5, §6, §7, §8

The test system of a further assay is Jurkat cells. In words: CellTiterGlo cell viability assay. To be noted: Homo sapiens, 24 h, mean of triplicates, ^b/^c values estimated, read-out: IC50±sd/μM (cell viability). The class given is cell-based, human. How it is done:
The effects of the compounds on cell viability was determined using the CellTiter-Glo® 2.0 Cell Viability Assay (Promega: G9241) following manufacturer’s protocol. Ten µL of Jurkat cells at […]
After equilibration, PROTACs were titrated at various concentrations using an Echo acoustic […]
volume of CellTiter-Glo® 2.0 reagent (10 µL) was added to each well and cells were incubated for 10 minutes at room temperature. Filtered luminescence was measured on a PHERAstar plate reader (BMG Labtech) and data was evaluated using GraphPad Prism 9 software employing a normalized curve it with the following equation: Y=Bottom + (Top-Bottom)/(1+10(LogEC50-X) *HillSlope).
Sample preparation. Jurkat cells (ATCC © HTB-22) were cultured in RPMI (Thermo: […]

The target in a further assay is VHL (Homo sapiens, UniProt P40337). In words: NanoBRET target engagement assay. Conditions: permeabilized cells. A general note: BRET reads energy transfer from a luciferase to a nearby fluorophore.
The test system of assay [3] is kinase protein levels in Jurkat cells. In words: TMT-labeled quantitative proteomics. The format is cell-based, human. To be noted: Jurkat, 1 µM, set1.2. How it is done:
cultured in RPMI (Thermo: 11875093) supplemented as mentioned above. Cells were seeded in 6 well plates (Greiner: 657160) at a cell density of 1·10 6 cells/well and left at 37 °C and 5% […]
as §1
0030108116) and samples were boiled for 15 minutes at 95 °C and sonicated for 2 minutes.
as §2
Dissolving the Protein Pellet and Protein Quantification. 50 µl of digestion buffer (8 M Urea, 50 mM TRIS pH 8) was added to each sample before vortexing and shaking at 750 rpm at room temperature for 10 minutes to solubilize the pellet. Protein quantification via PierceTM BCA Protein Assay Kit (Thermo: 23225) was carried out according to manufacturer’s protocol.
as §4, §5, §6
TMT-Labeling. Desalted peptides were dried and resuspended in TMT-labeling buffer (200 mM EPPS pH 8.2, 20% acetonitrile). 10 μg of peptides per condition were subjected to TMT labeling with 1:2.5 peptide TMT ratio (w/w) for 1 h at room temperature. The labeling reaction was quenched by addition of hydroxylamine to a final concentration of 0.5% and incubation at room temperature for 15 minutes. Successful TMT labeling was verified by mixing equimolar ratios of peptides and subjecting the mix to single shot LC-MS/MS analysis. For high pH reversed phase fractionation on a Dionex analytical HPLC, 50 µg of pooled and purified TMT labelled samples were resuspended in 10 mM ammonium-bicarbonate (ABC), 5% acetonitrile, […]
particle size; Phenomenex) using a multistep gradient from 100% solvent A (5% acetonitrile, 10 mM ABC in water) to 60% solvent B (90% acetonitrile, 10 mM ABC in water) over 70 minutes. Eluting peptides were collected every 45 seconds into a total of 96 fractions, which were cross-concatenated into 24 fractions and dried in a vacuum concentrator and resuspended in 3% acetonitrile with 0.1% TFA for LC-MS analysis.
Mass spectrometry data acquisition. Tryptic peptides were analyzed on an Orbitrap Lumos coupled to an easy nLC 1200 (ThermoFisher Scientific) using a 35 cm long, 75 µm ID fused-

VHL, sequence (P40337 whole entry): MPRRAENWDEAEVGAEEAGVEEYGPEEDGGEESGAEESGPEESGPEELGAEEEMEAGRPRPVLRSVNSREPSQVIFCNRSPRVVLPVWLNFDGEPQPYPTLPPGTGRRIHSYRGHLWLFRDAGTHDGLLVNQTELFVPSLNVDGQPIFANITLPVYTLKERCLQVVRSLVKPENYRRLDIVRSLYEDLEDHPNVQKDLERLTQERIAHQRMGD
Protocol for VHL: Compounds were pipetted at various concentrations using an Echo acoustic dispenser (Labcyte), immediately followed by Tracer K10 (Promega, Tracer DB ID: T000008) for AAK1 and Aurora A and VHL Tracer (Promega, Tracer DB ID: T000019) for VHL, at an optimum KD concentration chosen from TracerDB ( tracerdb.org), respectively.
To measure the BRET signal, the NanoBRET® NanoGlo Substrate (Promega:
N1573) was added as per the manufacturer’s protocol, and filtered luminescence was measured on a PHERAstar plate reader (BMG Labtech) equipped with a luminescence filter pair (450 nm BP filter (donor) and 610 nm LP filter (acceptor)). For NanoBRET® measurement in permeabilized cells, 25 nL of digitonin (0.05 μg/μL) was pipetted into each well using an
After incubation, the BRET signals were measured by a PHERAstar plate reader (BMG Labtech) following the same procedure as intact NanoBRET® measurement. Competitive displacement data were then normalized to controls and were plotted using GraphPad Prism 9 software employing a normalized 3-parameter curve fit with the following equation:

For the molecule `Cc1ncsc1-c1ccc(CNC(=O)[C@@H]2C[C@@H](O)CN2C(=O)[C@@H](NCCOCCOCCOCCOCCC(=O)N2CCN(c3ccc(Nc4ncc(Cl)c(Nc5ccccc5C(N)=O)n4)cc3)CC2)C(C)(C)C)cc1` [6-c], the kinase degradation entry in assay [1] (MCF-7 cells, 1 μM, 6 h) was “did not result in significant degradation of any kinase”. The “log2FC (compound/DMSO)” value is given as -0.692 in assay [1] (protein NBPF19;NBPF15;NBPF8;NBPF10;NBPF26;NBPF14); -0.0761 in assay [1] (protein NUDT4); -0.01736 in assay [2]; 0.05309 in assay [3] (protein NUDT4); -0.1563 in assay [3] (protein PIGBOS1); -0.1064 in assay [3] (protein TRAV8-2). For the same molecule, the “log2FC (compound/DMSO)” value in assay [3] (protein TRBV12-3;TRBV12-4) is given as -0.03811. Further, the “P.Value (compound/DMSO)” value in assay [2] was found to be 0.867. For the same molecule, in the assay on Jurkat cells, the IC50 is 8.5 ± 0.8 µM. Further, the VHL binding entry on VHL is “did not bind strongly to VHL”.

Values taken from PMC11851430, “Workflow for E3 Ligase Ligand Validation for PROTAC Development” (ACS Chemical Biology, 2025).
